Measurements taken from ChEMBL document CHEMBL6109121, “Discovery of Novel Sulfonylurea NLRP3 Inflammasome Inhibitor for the Treatment of Multiple Inflammatory Diseases” (J Med Chem, 2025).
Activity calls are given as the source filed them. The rule behind the calls is not given here.

Assays:
Mus musculus [1] = experiment: (§1) Antidiabetic activity in HFD-fed STZ-induced diabetic kidney disease male C57BL/6J mouse model assessed as reduction in glomerular thickening in kidney at 20 mg/kg fed with high fat diet for 4 weeks followed by STZ administration for 5 days and measured 6 weeks post compound administration via gavage by histological analysis; type: functional, organism-based
[2] = Drug uptake in heart of male C57BL/6J mouse at 20 mg/kg, po administered as single dose and measured after 8 hrs by LC-MS/MS analysis; type: ADME, organism-based; settings: in vivo
Mus musculus [3] = experiment: (§2) Anti-colitis activity in DSS-induced acute ulcerative colitis male C57BL/6J mouse model assessed as reduction in infiltration of inflammatory cells in colon at 0.2 to 5 mg/kg, po preadministered with DSS for 7 days followed by 3 days of drinking water and measured after 10 days of compound administration by H and E staining based analysis; type: functional, organism-based; settings: dose 0.2-5 mg/kg, time 10.0 day
[4] = target: NACHT, LRR and PYD domains-containing protein 3 (Mus musculus) (UniProt Q8R4B8); experiment: In vivo inhibition of NLRP3 inflammasome activation in DSS-induced acute ulcerative colitis male C57BL/6J mouse model assessed as reduction in IL-1beta level in colon at 0.2 to 5 mg/kg, po preadministered with DSS for 7 days followed by 3 days of drinking water and measured after 10 days of compound administration by ELISA; type: functional, organism-based; settings: dose 0.2-5 mg/kg, time 10.0 day
[5] = Inhibition of NLRP3 inflammasome activation in LPS/ATP-stimulated male C57BL/6J mouse BMDM cells assessed as inhibition of IL-1beta secretion […] for 4 hrs followed by compound administration for 30 mins and measured after 1 hrs of ATP addition by ELISA; type: cell-based
[6] = Drug uptake in lung of male C57BL/6J mouse at 20 mg/kg, po administered as single dose and measured after 8 hrs by LC-MS/MS analysis; type: ADME, organism-based; settings: in vivo
Mus musculus [7] = experiment: Anti-colitis activity in DSS-induced acute ulcerative colitis male C57BL/6J mouse model assessed as reduction in body weight loss at 5 mg/kg, po preadministered with DSS for 7 days followed by 3 days of drinking water and measured after 10 days of compound administration; type: functional, organism-based; settings: time 10.0 day
Mus musculus [8] = experiment: Anti-colitis activity in DSS-induced acute ulcerative colitis male C57BL/6J mouse model assessed as reduction in histologic severity score at 0.2 to 5 mg/kg, po preadministered with DSS for 7 days followed by 3 days of drinking water and measured after 10 days of compound administration; type: functional, organism-based; settings: dose 0.2-5 mg/kg, time 10.0 day
BMDM [9] = experiment: Inhibition of NLRP3 inflammasome activation at initiation phase in LPS/ATP-stimulated male C57BL/6J mouse BMDM cells assessed as inhibition of IL6 secretion […] for 4 hrs followed by compound administration for 30 mins and measured after 1 hrs of ATP addition by ELISA; type: cell-based; settings: time 1.5 hrs
[10] = target: T1, Nlrp3/Pycard (Mus musculus) (UniProt Q8R4B8+Q9EPB4); experiment: In vivo inhibition of NLRP3-ASC protein-protein interaction in HFD-fed STZ-induced diabetic kidney disease male C57BL/6J mouse model at 20 mg/kg fed with high fat diet for 4 weeks followed by STZ administration for 5 days and measured 6 weeks post compound administration via gavage by co-immunoprecipitation based Western blot analysis; type: functional, organism-based
BMDM [11] = experiment: Inhibition of NLRP3 inflammasome activation at initiation phase in LPS/ATP-stimulated male C57BL/6J mouse BMDM cells assessed as inhibition of TNF-alpha secretion […] for 4 hrs followed by compound administration for 30 mins and measured after 1 hrs of ATP addition by ELISA; type: cell-based; settings: time 1.5 hrs
[12] = AUClast in male ICR (CD-1) mouse at 5 mg/kg, iv by LC-MS/MS analysis; type: ADME, organism-based; settings: in vivo
Mus musculus [13] = experiment: (§3) Anti-inflammatory activity in LPS/ATP-induced acute peritonitis male C57BL/6J mouse model assessed as survival rate at 20 mg/kg, po preadministered with compound for 1 hrs followed by LPS addition for 2 hrs and further administered with ATP and measured 21 hrs post LPS administration relative to control; type: functional; settings: time 22 hrs
Mus musculus [14] = experiment: as §1, with “macrophage infiltration” for “glomerular thickening”, “F4/80 immunostaining based” for “histological”; type: functional, organism-based
Mus musculus [15] = experiment: as §3, with “1” for “20”; type: functional; settings: time 22 hrs
Mus musculus [16] = experiment: as §1, with “as decrease” for “as reduction”, “in IL-1beta level” for “in glomerular thickening”, “in serum” for “in kidney”, “by ELISA” for “by histological analysis”; type: functional, organism-based
Mus musculus [17] = experiment: Antidiabetic activity in HFD-fed STZ-induced diabetic kidney disease male C57BL/6J mouse model assessed as improvement of glucose tolerance at 20 mg/kg fed with high fat diet for 4 weeks followed by STZ administration for 5 days further administered with compound via gavage for 6 weeks and measured after 120 mins of glucose administration by OGTT; type: functional, organism-based; settings: time 60600.0 min
Mus musculus [18] = experiment: Anti-colitis activity in DSS-induced acute ulcerative colitis male C57BL/6J mouse model assessed as decrease in disease activity index score at 0.2 to 5 mg/kg, po preadministered with DSS for 7 days followed by 3 days of drinking water and measured after 10 days of compound administration; type: functional, organism-based; settings: dose 0.2-5 mg/kg, time 10.0 day
[19] = target: T1, Nlrp3/Pycard (Mus musculus); experiment: Inhibition of NLRP3-ASC protein-protein interaction in LPS/ATP stimulated male C57BL/6J mouse BMDM cells by co-immunoprecipitation based Western blot analysis; type: cell-based
[20] = Drug uptake in brain of male C57BL/6J mouse at 20 mg/kg, po administered as single dose and measured after 8 hrs by LC-MS/MS analysis; type: ADME, organism-based; settings: in vivo
[21] = AUClast in male ICR (CD-1) mouse at 20 mg/kg, po by LC-MS/MS analysis; type: ADME, organism-based; settings: in vivo
Mus musculus [22] = experiment: Effect on TNF-alpha level in serum of LPS/ATP-induced acute peritonitis male C57BL/6J mouse model at 1 to 20 mg/kg, po preadministered with compound for 1 hrs followed by LPS addition for 2 hrs and measured 12 hrs post ATP administration by ELISA; type: functional, organism-based; settings: dose 1-20 mg/kg, time 13.0 hrs
[23] = target: NACHT, LRR and PYD domains-containing protein 3 (Mus musculus) (UniProt Q8R4B8); experiment: In vivo inhibition of NLRP3 inflammasome activation in LPS/ATP-induced acute peritonitis male C57BL/6J mouse model assessed as reduction in IL-1beta level in serum preadministered orally with compound for 1 hrs followed by LPS addition for 2 hrs and measured 12 hrs post ATP administration by ELISA; type: functional, organism-based; settings: dose 1-20 mg/kg, route po, time 13.0 hrs
Mus musculus [24] = experiment: Effect on TNF-alpha level in serum of HFD-fed STZ-induced diabetic kidney disease male C57BL/6J mouse model at 20 mg/kg fed with high fat diet for 4 weeks followed by STZ administration for 5 days and measured 6 weeks post compound administration via gavage by ELISA; type: functional, organism-based
Mus musculus [25] = experiment: as §1, with “urine albumin-to-creatinine ratio” for “glomerular thickening in kidney”, “gavage” for “gavage by histological analysis”; type: functional, organism-based
Mus musculus [26] = experiment: Antidiabetic activity in HFD-fed STZ-induced diabetic kidney disease male C57BL/6J mouse model assessed as reduction in LDL-C level in serum at 20 mg/kg fed with high fat diet for 4 weeks followed by STZ administration for 5 days and measured 6 weeks post compound administration via gavage; type: functional, organism-based
[27] = Cmax in male ICR (CD-1) mouse at 20 mg/kg, po by LC-MS/MS analysis; type: ADME, organism-based; settings: in vivo
[28] = Inhibition of NLRP3 inflammasome activation in human THP-1 cells assessed as inhibition of IL-1beta release; type: cell-based
[29] = Drug uptake in gastrointestinal tract of male C57BL/6J mouse at 20 mg/kg, po administered as single dose and measured after 8 hrs by LC-MS/MS analysis; type: ADME, organism-based; settings: in vivo
Mus musculus [30] = experiment: as §2, with “crypt necrosis” for “infiltration of inflammatory cells”; type: functional, organism-based; settings: dose 0.2-5 mg/kg, time 10.0 day

Sequence of NACHT, LRR and PYD domains-containing protein 3 (Mus musculus) (Q8R4B8 whole entry, the tested form may be a part): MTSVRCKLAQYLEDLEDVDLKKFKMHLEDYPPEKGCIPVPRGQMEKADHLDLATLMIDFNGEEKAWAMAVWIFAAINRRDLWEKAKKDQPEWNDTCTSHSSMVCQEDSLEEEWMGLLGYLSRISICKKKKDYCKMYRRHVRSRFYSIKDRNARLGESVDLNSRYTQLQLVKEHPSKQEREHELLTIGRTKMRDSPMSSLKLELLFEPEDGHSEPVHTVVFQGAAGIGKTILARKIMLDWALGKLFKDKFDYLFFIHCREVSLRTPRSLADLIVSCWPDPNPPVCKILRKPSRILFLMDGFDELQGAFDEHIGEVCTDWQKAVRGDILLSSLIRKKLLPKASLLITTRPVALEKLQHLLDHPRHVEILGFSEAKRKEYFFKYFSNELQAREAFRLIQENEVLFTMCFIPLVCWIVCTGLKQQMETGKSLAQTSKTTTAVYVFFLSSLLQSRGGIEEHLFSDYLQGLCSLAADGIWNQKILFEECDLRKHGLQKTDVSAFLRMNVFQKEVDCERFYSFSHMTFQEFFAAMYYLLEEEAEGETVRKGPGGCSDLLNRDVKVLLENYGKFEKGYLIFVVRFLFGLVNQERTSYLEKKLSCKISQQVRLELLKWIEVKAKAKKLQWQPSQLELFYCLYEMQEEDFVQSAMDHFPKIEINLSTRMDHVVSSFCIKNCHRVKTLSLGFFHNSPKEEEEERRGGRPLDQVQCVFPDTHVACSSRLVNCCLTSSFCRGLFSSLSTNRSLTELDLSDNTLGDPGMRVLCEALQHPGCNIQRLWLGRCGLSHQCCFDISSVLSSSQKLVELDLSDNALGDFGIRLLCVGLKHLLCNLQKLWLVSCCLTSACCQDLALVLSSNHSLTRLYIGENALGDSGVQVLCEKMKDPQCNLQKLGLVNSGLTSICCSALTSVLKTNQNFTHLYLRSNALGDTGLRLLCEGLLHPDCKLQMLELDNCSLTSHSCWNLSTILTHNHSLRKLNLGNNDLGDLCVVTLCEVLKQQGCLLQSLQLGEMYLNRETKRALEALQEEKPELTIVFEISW
T1 sequence (Q8R4B8 whole entry, looked up): as the sequence (Q8R4B8 whole entry, the tested form may be a part) above
T1 sequence (Q9EPB4 whole entry, looked up): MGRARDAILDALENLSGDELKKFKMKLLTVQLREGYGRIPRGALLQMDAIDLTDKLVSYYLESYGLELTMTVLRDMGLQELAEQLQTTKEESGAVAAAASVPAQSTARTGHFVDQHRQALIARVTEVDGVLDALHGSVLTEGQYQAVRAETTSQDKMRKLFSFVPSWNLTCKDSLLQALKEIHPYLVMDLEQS

## CN1CCC(N(C)S(=O)(=O)NC(=O)Nc2c3c(cc4c2CCC4)CCC3)CC1
Mus musculus [1]
  Activity: Active
[2]
  Drug uptake: Active
Mus musculus [3]
  Activity: Active
[4]
  inhibition: Active
[5]
  IC50: 106 nM
[6]
  Drug uptake: Active
Mus musculus [7]
  Activity: Active; Significant Difference Not Observed
Mus musculus [8]
  Activity: Active
BMDM [9]
  inhibition: inactive
[10]
  inhibition: Active
BMDM [11]
  inhibition: inactive
[12]
  AUC(0-t): 14500 ng·h/mL
Mus musculus [13]
  survival at 20 mg/kg: 100%
Mus musculus [14]
  Activity: Active
Mus musculus [15]
  survival at 1 mg/kg: 75%
Mus musculus [16]
  Activity: Active
Mus musculus [17]
  Activity: inactive
Mus musculus [18]
  Activity: Active
[19]
  inhibition: Active
[20]
  Drug uptake: Not_active
[21]
  AUC(0-t): 57900 ng·h/mL
Mus musculus [22]
  Activity: inactive
[23]
  inhibition: Dose-dependent-effect
Mus musculus [24]
  Activity: inactive
Mus musculus [25]
  Activity: Active
Mus musculus [26]
  Activity: Active
[27]
  Cmax: 35500 ng/mL
[28]
  IC50: 23 nM
[29]
  Drug uptake: Active
Mus musculus [30]
  Activity: Active
